# Reference: patent US20030104507A1, “Method for detection of ATP” (priority 2001, published 2003)
# Test system: ATPase activity endogenous to L929 cell lysate
# Experiment: Detergent inhibition of ATPase endogenous to L929 cell lysate (ATP remaining by luciferase luminescence, 22° C.)
# Assay type: biochemical
# Design: key to Relative ATPase Activity, slope det/slope lysate: slope with detergent / slope without; ≥1.0 = 100% activity, 0.5 = 50%
# Experimental: Three separate detergents in each of four detergent classes were tested: anionic [SDS (Sodium dodecyl sulfate), Bioterge (an α olefin sulfate), and sodium deoxycholate], nonionic [TRITON X-100, BigCHAP (N,N-bis(3-D-Gluconamidopropyl)cholamide) and THESIT (polyethylene glycol 400 dodecyl ether, Fluka, #88315)], cationic [BDDABr (Benzyldimethyldodecylammonium bromide), CTAB (Cetyltrimethylammonium bromide), and DTAB (dodecyltrimethylammonium bromide)] and zwitterionic [CHAPS (3[(3-Cholamidopropyl)dimethylammonio]propanesulfonic acid), CHAPSO (3-([3-Cholamidopropyl]dimethylammonio)-2-hydroxy-1-propanesulfonate), and Sulfobetaine 3-10 ([…]-N,N-dimethyl-3-ammonio-1-propanesulfonate)]. Detergents were obtained from Sigma, Fluka and Aldrich.
# L929 cells (ATCC CCL-1; 1.5×10^5 cells/ml) in F12/DMEM (Hyclone, SH30023) containing 10% horse serum (Hyclone, SH30074) were frozen and thawed for four cycles to create a cell lysate. Then 50 μl of stock detergent solutions [10%, 5.0%, 1.0%, and 0.5% (w/v)] were separately added to 450 μl cell lysate, creating a final detergent concentration in the cell lysate sample of 1.0%, 0.5%, 0.1%, and 0.05%, respectively (these percentage values are those used in Tables D and E herein below). Control samples contained either lysate only or 1.0 μM ATP in 15 mM HEPES buffer (pH 7.5). All samples were incubated at 22° C. (room temperature) for the duration of the experiment.
# At various timepoints, 20 μl from each sample/detergent mixture was added to a 96-well luminometer plate in triplicate, and then 100 μl of a solution (“luciferase-luciferin” or “L/L reagent”) containing 25 mM HEPES buffer (pH 7.5), 40 μg luciferase enzyme LucPpe2m146 (Promega, E140), 100 μM luciferin (Promega), and 10 mM MgSO4 was added to each well. The L/L reagent was stored at 4° C. for the duration of the experiment and then allowed to reach ambient temperature just before assaying. After mixing the contents of the plate, light output was measured with a Dynex MLX microtiter plate luminometer (Chantilly, Va.), 0.5 second reads per well with the first measurement taken five minutes after the detergent solution was combined with the sample. The average relative light units and the timepoint at which it was measured (rlu; Table D) and percent of remaining luciferase activity at the timepoint (Table E) are reported; controls were run with each set of experimental conditions as indicated. The cationic and anionic detergents were assayed on one day with one set of controls. The zwitterionic and nonionic detergents were assayed on a separate day with a separate set of controls. The DTAB at 0.5% was assayed on both days (1 and 2).
# The experiment was performed as detailed in Example 1. The average relative light unit values and the percent of ATP remaining values are listed below in Table F and G respectively.
# The log of the percent of ATP remaining after original timepoint values from Table E and Table G were plotted on the y axis against time (in minutes) on the x axis. The slope of the line generated by these values in the presence of detergent was divided by the slope of the line generated by the values in the absence of detergent (lysate control) resulting in the Relative ATPase Activity values listed below in Table H.
# A relative activity value of 1.0 or greater indicates 100% cellular ATPase activity at the concentration of detergent tested. A relative activity value of 0.5 indicates a two-fold (or 50%) decrease in the level of cellular ATPase activity at the concentration of detergent tested when compared to the ATPase activity level in the absence of the detergent. A relative activity value of 0.2 indicates a five-fold (or 80%) decrease in the level of cellular ATPase activity at the concentration of detergent tested when compared to the ATPase activity level in the absence of the detergent.
# [1] = Example 2, 0.02% detergent, 5 min
# [2] = Example 2, 0.02% detergent, 75 min
# [3] = Example 2, 0.02% detergent, 169 min
# [4] = Example 2, 0.02% detergent, 222 min
# [5] = Example 2, 0.02% detergent, 260 min
compound,measurement,setting,value
"CCCCCCCCCCCC[N+](C)(C)Cc1ccccc1.[Br-] [BDDABr, Benzyldimethyldodecylammonium bromide]","Relative ATPase Activity, slope det/slope lysate",0.02 percent detergent,0.623
same,Slope (log percent ATP remaining vs time in minutes),0.02 percent detergent,−0.0039
same,Average Relative Light Unit Values,"0.05% detergent, 5 min",7077.46 rlu
same,Percent ATP Remaining,"0.05% detergent, 5 min",100%
same,Average Relative Light Unit Values,"0.05% detergent, 75 min",4539.97 rlu
same,Percent ATP Remaining,"0.05% detergent, 75 min",64.1%
same,Average Relative Light Unit Values,"0.05% detergent, 169 min",2465.57 rlu
same,Percent ATP Remaining,"0.05% detergent, 169 min",34.8%
same,Average Relative Light Unit Values,"0.05% detergent, 222 min",1680.16 rlu
same,Percent ATP Remaining,"0.05% detergent, 222 min",23.7%
same,Average Relative Light Unit Values,"0.05% detergent, 260 min",1233.82 rlu
same,Percent ATP Remaining,"0.05% detergent, 260 min",17.4%
same,"Relative ATPase Activity, slope det/slope lysate",0.05 percent detergent,0.528
same,Slope (log percent ATP remaining vs time in minutes),0.05 percent detergent,−0.0030
same,Average Relative Light Unit Values,"0.1% detergent, 5 min",7069.08 rlu
same,Percent ATP Remaining,"0.1% detergent, 5 min",100%
same,Average Relative Light Unit Values,"0.1% detergent, 75 min",5136.92 rlu
same,Percent ATP Remaining,"0.1% detergent, 75 min",72.7%
same,Average Relative Light Unit Values,"0.1% detergent, 169 min",3260.59 rlu
same,Percent ATP Remaining,"0.1% detergent, 169 min",46.1%
same,Average Relative Light Unit Values,"0.1% detergent, 222 min",2366.49 rlu
same,Percent ATP Remaining,"0.1% detergent, 222 min",33.5%
same,Average Relative Light Unit Values,"0.1% detergent, 260 min",1767.58 rlu
same,Percent ATP Remaining,"0.1% detergent, 260 min",25.0%
same,"Relative ATPase Activity, slope det/slope lysate",0.10 percent detergent,0.414
same,Slope (log percent ATP remaining vs time in minutes),0.10 percent detergent,−0.0023
same,Average Relative Light Unit Values,"0.5% detergent, 5 min",122.47 rlu
same,Percent ATP Remaining,"0.5% detergent, 5 min",100%
same,Average Relative Light Unit Values,"0.5% detergent, 75 min",107.39 rlu
same,Percent ATP Remaining,"0.5% detergent, 75 min",87.7%
same,Average Relative Light Unit Values,"0.5% detergent, 169 min",93.92 rlu
same,Percent ATP Remaining,"0.5% detergent, 169 min",76.2%
same,Average Relative Light Unit Values,"0.5% detergent, 222 min",96.68 rlu
same,Percent ATP Remaining,"0.5% detergent, 222 min",78.9%
same,Average Relative Light Unit Values,"0.5% detergent, 260 min",101.11 rlu
same,Percent ATP Remaining,"0.5% detergent, 260 min",82.6%
same,"Relative ATPase Activity, slope det/slope lysate",0.50 percent detergent,0.064
same,Slope (log percent ATP remaining vs time in minutes),0.50 percent detergent,−0.0004
same,Average Relative Light Unit Values,"1.0% detergent, 5 min",0.49 rlu
same,Average Relative Light Unit Values,"1.0% detergent, 75 min",0.51 rlu
same,Average Relative Light Unit Values,"1.0% detergent, 169 min",0.44 rlu
same,Average Relative Light Unit Values,"1.0% detergent, 222 min",0.42 rlu
same,Average Relative Light Unit Values,"1.0% detergent, 260 min",0.43 rlu
same,Average Relative Light Unit Values,[1],6215.32 rlu
same,Percent ATP Remaining,[1],100.00%
same,Average Relative Light Unit Values,[2],2686.49 rlu
same,Percent ATP Remaining,[2],48.53%
same,Average Relative Light Unit Values,[3],962.85 rlu
same,Percent ATP Remaining,[3],21.51%
same,Average Relative Light Unit Values,[4],604.47 rlu
same,Percent ATP Remaining,[4],13.18%
same,Average Relative Light Unit Values,[5],429.86 rlu
same,Percent ATP Remaining,[5],9.74%
"CCCCCCCCCCCCCCCC[N+](C)(C)C.[Br-] [CTAB, Cetyltrimethylammonium bromide]","Relative ATPase Activity, slope det/slope lysate",0.02 percent detergent,0.718
same,Slope (log percent ATP remaining vs time in minutes),0.02 percent detergent,−0.0046
same,Average Relative Light Unit Values,"0.05% detergent, 5 min",6525.51 rlu
same,Percent ATP Remaining,"0.05% detergent, 5 min",100%
same,Average Relative Light Unit Values,"0.05% detergent, 75 min",4029.32 rlu
same,Percent ATP Remaining,"0.05% detergent, 75 min",61.7%
same,Average Relative Light Unit Values,"0.05% detergent, 169 min",2093.80 rlu
same,Percent ATP Remaining,"0.05% detergent, 169 min",32.1%
same,Average Relative Light Unit Values,"0.05% detergent, 222 min",1437.67 rlu
same,Percent ATP Remaining,"0.05% detergent, 222 min",22.0%
same,Average Relative Light Unit Values,"0.05% detergent, 260 min",1002.72 rlu
same,Percent ATP Remaining,"0.05% detergent, 260 min",15.4%
same,"Relative ATPase Activity, slope det/slope lysate",0.05 percent detergent,0.561
same,Slope (log percent ATP remaining vs time in minutes),0.05 percent detergent,−0.0031
same,Average Relative Light Unit Values,"0.1% detergent, 5 min",5104.82 rlu
same,Percent ATP Remaining,"0.1% detergent, 5 min",100%
same,Average Relative Light Unit Values,"0.1% detergent, 75 min",3607.65 rlu
same,Percent ATP Remaining,"0.1% detergent, 75 min",70.7%
same,Average Relative Light Unit Values,"0.1% detergent, 169 min",1889.29 rlu
same,Percent ATP Remaining,"0.1% detergent, 169 min",37.0%
same,Average Relative Light Unit Values,"0.1% detergent, 222 min",1248.51 rlu
same,Percent ATP Remaining,"0.1% detergent, 222 min",24.5%
same,"Relative ATPase Activity, slope det/slope lysate",0.10 percent detergent,0.507
same,Slope (log percent ATP remaining vs time in minutes),0.10 percent detergent,−0.0028
same,Average Relative Light Unit Values,"0.5% detergent, 5 min",0.34 rlu
same,Average Relative Light Unit Values,"0.5% detergent, 75 min",0.28 rlu
same,Average Relative Light Unit Values,"0.5% detergent, 169 min",0.23 rlu
same,Average Relative Light Unit Values,"0.5% detergent, 222 min",0.27 rlu
same,Average Relative Light Unit Values,"0.5% detergent, 260 min",0.18 rlu
same,Average Relative Light Unit Values,"1.0% detergent, 5 min",0.09 rlu
same,Average Relative Light Unit Values,"1.0% detergent, 75 min",0.08 rlu
same,Average Relative Light Unit Values,"1.0% detergent, 169 min",0.07 rlu
same,Average Relative Light Unit Values,"1.0% detergent, 222 min",0.06 rlu
same,Average Relative Light Unit Values,"1.0% detergent, 260 min",0.07 rlu
same,times more ATP present in the sample after four hours when the detergent was present than when it was absent,CTAB 0.05%,about four
same,Percent ATP Remaining,[1],100.00%
same,Percent ATP Remaining,[2],43.22%
same,Percent ATP Remaining,[3],15.49%
same,Percent ATP Remaining,[4],9.73%
same,Percent ATP Remaining,[5],6.92%
